Results from ChEMBL document CHEMBL5465560, “Selectivity Literature for EUbOPEN Chemogenomic Library” (2024).

Assays:
[1] = target: T1, Histone-arginine methyltransferase CARM1 (Homo sapiens) (UniProt Q86X55); conditions: KMS-26, at 3 µM
T1 sequence (whole entry): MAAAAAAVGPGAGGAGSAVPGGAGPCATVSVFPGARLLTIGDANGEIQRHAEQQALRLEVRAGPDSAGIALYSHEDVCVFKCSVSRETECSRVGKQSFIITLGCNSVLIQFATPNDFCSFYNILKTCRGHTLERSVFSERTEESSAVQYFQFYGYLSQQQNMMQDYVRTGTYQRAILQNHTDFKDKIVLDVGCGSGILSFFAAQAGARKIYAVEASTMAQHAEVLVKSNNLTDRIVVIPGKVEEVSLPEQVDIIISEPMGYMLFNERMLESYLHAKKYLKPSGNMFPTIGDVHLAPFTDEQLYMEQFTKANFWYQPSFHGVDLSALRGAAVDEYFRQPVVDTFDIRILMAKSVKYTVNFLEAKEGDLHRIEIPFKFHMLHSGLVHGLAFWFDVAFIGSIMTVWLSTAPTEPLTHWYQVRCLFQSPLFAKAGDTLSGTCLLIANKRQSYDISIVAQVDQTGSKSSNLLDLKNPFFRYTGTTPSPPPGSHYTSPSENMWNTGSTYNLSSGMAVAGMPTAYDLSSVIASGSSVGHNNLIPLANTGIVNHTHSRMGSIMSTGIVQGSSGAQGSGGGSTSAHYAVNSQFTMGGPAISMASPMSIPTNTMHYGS

[2] = target: T2, Dual specificity protein kinase TTK (Homo sapiens) (UniProt P33981); test: Selectivity interaction (KinomeScan (DiscoverX)) EUB0000695a TTK; conditions: at 100 nM
T2 sequence (whole entry): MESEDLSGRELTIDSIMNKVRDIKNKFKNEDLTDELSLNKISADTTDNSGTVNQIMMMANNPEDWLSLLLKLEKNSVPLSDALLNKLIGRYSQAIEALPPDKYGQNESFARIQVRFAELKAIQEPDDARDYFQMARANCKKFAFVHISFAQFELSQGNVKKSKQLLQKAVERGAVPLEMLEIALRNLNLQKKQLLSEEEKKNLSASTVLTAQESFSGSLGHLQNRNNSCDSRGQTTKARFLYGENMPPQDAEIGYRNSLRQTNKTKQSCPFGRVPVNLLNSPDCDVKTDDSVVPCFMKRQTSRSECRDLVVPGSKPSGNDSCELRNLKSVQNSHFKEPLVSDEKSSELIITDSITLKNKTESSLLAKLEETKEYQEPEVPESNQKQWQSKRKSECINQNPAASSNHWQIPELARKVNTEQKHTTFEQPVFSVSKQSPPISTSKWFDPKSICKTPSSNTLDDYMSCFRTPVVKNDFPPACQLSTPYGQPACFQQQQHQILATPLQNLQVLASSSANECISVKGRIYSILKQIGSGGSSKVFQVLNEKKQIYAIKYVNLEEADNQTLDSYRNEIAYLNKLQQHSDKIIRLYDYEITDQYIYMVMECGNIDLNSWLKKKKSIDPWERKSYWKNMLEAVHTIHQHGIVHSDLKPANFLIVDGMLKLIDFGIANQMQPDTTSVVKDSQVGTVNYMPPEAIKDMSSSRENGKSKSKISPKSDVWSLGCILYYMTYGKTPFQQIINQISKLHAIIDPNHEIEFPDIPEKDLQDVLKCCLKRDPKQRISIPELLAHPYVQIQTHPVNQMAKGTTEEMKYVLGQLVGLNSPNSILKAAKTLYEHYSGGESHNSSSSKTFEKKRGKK

[3] = target: Vascular endothelial growth factor receptor 3 (Homo sapiens, UniProt P35916); test: Selectivity interaction (KinomeScan (DiscoverX)) EUB0000666a FLT4; conditions: at 10 µM
[4] = target: T3, Inhibitor of nuclear factor kappa-B kinase subunit beta (Homo sapiens) (UniProt O14920); conditions: at 1 µM
T3 sequence (whole entry): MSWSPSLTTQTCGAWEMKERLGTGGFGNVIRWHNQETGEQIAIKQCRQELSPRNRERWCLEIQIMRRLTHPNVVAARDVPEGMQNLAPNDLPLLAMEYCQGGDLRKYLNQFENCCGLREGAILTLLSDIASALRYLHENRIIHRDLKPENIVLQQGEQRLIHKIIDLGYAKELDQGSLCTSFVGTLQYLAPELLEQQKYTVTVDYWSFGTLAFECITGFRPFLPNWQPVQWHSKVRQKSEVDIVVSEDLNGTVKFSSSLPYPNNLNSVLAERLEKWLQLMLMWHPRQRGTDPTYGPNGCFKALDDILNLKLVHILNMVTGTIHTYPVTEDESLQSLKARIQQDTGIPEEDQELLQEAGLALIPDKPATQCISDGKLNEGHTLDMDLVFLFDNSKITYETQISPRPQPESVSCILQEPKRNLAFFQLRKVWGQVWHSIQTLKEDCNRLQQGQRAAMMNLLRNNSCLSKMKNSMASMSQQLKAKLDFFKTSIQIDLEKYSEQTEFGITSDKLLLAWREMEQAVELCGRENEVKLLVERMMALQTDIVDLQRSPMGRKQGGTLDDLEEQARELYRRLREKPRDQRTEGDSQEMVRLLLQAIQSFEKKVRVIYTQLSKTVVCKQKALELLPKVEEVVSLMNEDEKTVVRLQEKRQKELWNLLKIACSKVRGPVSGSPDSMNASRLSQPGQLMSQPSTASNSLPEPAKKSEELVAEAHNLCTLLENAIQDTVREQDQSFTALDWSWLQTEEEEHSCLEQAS

[5] = test system: Hepatocyte growth factor receptor (Homo sapiens), P08581 [Y1230C]; test: (§1) Selectivity interaction (ProQinase) EUB0000171b MET
Sequence of Hepatocyte growth factor receptor (Homo sapiens), P08581 [Y1230C] (P08581 whole entry Y1230C): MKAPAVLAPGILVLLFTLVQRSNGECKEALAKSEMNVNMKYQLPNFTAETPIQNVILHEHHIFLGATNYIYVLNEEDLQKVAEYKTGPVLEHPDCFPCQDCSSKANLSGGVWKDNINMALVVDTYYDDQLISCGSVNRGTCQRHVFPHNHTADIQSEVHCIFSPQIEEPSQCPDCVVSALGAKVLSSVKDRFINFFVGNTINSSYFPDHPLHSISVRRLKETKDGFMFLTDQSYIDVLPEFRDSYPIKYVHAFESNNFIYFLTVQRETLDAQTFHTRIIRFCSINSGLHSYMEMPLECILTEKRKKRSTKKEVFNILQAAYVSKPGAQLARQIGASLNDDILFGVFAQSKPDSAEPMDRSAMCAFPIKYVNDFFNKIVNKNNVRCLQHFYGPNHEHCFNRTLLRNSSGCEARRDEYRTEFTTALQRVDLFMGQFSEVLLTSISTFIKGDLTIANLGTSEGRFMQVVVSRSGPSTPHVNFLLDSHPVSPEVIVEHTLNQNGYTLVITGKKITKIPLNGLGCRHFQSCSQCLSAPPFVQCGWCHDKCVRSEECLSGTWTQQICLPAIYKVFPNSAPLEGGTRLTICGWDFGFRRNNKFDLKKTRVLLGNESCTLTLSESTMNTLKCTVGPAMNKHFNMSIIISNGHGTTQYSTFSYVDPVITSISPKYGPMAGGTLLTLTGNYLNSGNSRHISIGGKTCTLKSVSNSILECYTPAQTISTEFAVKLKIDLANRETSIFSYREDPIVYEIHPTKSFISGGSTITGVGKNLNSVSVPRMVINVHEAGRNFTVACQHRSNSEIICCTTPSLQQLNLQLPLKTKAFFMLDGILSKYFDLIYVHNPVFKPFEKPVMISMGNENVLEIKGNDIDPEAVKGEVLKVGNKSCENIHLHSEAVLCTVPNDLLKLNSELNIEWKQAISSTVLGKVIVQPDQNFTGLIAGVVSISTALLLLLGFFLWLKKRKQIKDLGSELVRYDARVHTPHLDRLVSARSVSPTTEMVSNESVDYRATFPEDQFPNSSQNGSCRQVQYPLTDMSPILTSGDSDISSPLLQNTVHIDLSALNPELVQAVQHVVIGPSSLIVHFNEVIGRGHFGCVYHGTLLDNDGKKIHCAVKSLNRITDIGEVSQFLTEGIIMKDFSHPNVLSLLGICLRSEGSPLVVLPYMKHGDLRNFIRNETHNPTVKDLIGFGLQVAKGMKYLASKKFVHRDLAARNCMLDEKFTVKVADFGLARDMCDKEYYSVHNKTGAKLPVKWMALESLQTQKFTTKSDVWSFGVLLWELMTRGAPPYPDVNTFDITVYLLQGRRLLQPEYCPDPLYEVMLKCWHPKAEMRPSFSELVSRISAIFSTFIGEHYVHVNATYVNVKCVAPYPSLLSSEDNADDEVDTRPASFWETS

[6] = test system: Hepatocyte growth factor receptor (Homo sapiens), P08581 [M1250T]; test: as §1
Sequence of Hepatocyte growth factor receptor (Homo sapiens), P08581 [M1250T] (P08581 whole entry M1250T): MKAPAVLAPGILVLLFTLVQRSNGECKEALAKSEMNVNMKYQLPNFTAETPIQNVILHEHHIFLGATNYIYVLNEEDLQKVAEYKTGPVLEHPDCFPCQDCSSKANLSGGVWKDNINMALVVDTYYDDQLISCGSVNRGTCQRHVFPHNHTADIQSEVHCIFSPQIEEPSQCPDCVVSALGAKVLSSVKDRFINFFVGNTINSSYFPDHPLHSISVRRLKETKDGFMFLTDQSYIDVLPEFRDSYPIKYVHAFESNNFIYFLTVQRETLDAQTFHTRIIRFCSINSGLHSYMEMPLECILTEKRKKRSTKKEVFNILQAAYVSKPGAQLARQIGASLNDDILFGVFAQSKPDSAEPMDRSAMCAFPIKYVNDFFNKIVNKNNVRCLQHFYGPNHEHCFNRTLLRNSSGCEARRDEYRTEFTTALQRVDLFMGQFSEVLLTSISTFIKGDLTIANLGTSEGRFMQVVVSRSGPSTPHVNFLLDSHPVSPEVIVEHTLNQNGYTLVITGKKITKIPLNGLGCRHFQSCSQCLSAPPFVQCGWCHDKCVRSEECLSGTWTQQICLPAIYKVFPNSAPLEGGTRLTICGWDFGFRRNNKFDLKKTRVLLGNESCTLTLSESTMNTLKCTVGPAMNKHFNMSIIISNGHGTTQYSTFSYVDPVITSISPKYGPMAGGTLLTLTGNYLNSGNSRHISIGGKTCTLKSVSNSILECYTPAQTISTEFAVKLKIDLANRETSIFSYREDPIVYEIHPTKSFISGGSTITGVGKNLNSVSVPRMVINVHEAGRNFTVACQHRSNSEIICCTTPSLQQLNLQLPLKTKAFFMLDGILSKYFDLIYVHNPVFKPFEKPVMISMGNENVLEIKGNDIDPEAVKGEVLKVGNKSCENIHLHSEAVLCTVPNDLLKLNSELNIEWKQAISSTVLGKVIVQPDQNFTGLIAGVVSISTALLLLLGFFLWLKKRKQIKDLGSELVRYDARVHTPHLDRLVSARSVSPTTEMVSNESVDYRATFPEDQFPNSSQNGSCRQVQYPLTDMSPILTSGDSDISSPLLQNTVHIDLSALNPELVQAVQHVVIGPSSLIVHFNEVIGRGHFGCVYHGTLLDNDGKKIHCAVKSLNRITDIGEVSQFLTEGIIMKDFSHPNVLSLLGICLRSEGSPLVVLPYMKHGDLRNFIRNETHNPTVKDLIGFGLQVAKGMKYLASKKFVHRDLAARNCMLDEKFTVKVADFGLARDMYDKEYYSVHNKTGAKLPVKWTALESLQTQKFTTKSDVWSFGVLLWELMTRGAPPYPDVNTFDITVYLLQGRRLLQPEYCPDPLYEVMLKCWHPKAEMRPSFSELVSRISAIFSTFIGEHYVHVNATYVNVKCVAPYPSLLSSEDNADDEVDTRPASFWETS

[7] = test system: Hepatocyte growth factor receptor (Homo sapiens), P08581 [Y1230H]; test: as §1
[8] = test system: Hepatocyte growth factor receptor (Homo sapiens), P08581 [D1228N]; test: as §1
[9] = test system: Hepatocyte growth factor receptor (Homo sapiens), P08581 [Y1235D]; test: as §1
[10] = target: Hepatocyte growth factor receptor (Homo sapiens, UniProt P08581); test: as §1
[11] = test system: Hepatocyte growth factor receptor (Homo sapiens), P08581 [Y1230D]; test: as §1
[12] = test system: Hepatocyte growth factor receptor (Homo sapiens), P08581 [D1228H]; test: as §1
[13] = test system: Hepatocyte growth factor receptor (Homo sapiens), P08581 [F1200I]; test: as §1
Sequence of Hepatocyte growth factor receptor (Homo sapiens), P08581 [F1200I] (P08581 whole entry F1200I): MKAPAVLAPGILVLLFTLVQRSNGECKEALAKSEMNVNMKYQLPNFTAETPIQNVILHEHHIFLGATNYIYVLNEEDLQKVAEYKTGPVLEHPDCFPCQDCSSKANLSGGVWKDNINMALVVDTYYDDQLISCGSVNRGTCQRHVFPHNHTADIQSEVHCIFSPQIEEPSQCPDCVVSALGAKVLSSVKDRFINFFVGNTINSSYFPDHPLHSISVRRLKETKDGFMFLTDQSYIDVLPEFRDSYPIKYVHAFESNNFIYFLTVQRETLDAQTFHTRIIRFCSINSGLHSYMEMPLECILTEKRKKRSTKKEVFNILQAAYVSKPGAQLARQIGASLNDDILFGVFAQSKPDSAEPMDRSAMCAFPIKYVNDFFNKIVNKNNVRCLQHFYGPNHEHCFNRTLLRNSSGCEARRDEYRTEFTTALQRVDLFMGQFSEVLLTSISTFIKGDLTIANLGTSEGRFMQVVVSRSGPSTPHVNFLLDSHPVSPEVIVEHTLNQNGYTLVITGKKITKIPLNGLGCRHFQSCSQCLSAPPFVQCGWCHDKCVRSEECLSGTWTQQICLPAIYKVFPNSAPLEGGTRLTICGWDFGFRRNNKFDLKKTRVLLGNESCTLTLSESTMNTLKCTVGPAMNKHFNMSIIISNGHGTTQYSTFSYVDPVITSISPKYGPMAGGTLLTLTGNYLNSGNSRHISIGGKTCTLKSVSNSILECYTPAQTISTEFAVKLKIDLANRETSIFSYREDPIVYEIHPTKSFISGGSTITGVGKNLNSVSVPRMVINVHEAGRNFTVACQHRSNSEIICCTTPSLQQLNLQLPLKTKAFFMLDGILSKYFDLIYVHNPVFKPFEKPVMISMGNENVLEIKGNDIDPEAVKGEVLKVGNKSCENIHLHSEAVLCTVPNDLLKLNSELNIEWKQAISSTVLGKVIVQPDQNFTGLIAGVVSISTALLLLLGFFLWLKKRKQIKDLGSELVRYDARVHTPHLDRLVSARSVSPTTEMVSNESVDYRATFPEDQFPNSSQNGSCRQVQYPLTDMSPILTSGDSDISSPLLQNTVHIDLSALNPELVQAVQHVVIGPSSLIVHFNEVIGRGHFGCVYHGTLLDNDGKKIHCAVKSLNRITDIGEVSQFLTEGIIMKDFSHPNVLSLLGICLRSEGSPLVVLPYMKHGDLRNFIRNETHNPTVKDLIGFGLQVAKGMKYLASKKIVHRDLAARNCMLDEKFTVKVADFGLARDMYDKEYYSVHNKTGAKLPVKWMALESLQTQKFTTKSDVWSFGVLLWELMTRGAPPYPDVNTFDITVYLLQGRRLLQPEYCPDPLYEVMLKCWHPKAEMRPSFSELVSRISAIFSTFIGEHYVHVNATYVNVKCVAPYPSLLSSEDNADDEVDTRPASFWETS

[14] = test system: Hepatocyte growth factor receptor (Homo sapiens), P08581 [Y1230A]; test: as §1

`CNCCN1CCC(c2cc(CN(C)C(=O)c3cccc(Oc4ccccc4)c3)ccn2)CC1` gave a % of growth rate [1] of -19.5%.

With `Cc1cc(F)c(C(=O)Nc2cccc(-c3nncn3C(C)C)n2)cc1-n1cnc(C2CC2)c1` the % of control [2] was 87%.

`O=C(NOC[C@H](O)CO)c1ccc(F)c(F)c1Nc1ccc(I)cc1F` was tested, and the % of control [3] was 94%.

For `Cc1ccc(-c2ccc3c(ccc4sc5c(c43)NC[C@@H](C)NC5=O)n2)cn1`, the % of inhibition [4] was 0%.

`C=CC(=O)Nc1cccc(C(=O)Nc2ccc(Nc3cc(-c4[nH]c(SC)nc4C)ccn3)cc2)c1` was tested, and the % of control ([5]; at 1 µM) was 90%, the % of control ([5]; at 5 µM) was 76% and the % of control ([6]; at 1 µM) was 88%. It also gave a % of control ([6]; at 5 µM) of 65%, a % of control ([7]; at 1 µM) of 92% and a % of control ([7]; at 5 µM) of 72%. For the same molecule, the % of control ([8]; at 1 µM) was 89%, the % of control ([8]; at 5 µM) was 74% and the % of control ([9]; at 1 µM) was 105%. The % of control ([9]; at 5 µM) was 86%, the % of control ([10]; at 1 µM) was 93% and the % of control ([10]; at 5 µM) was 78%. For the same molecule, the % of control ([11]; at 1 µM) was 88%, the % of control ([11]; at 5 µM) was 73% and the % of control ([12]; at 1 µM) was 76%. It also gave a % of control ([12]; at 5 µM) of 65%, a % of control ([13]; at 1 µM) of 81% and a % of control ([13]; at 5 µM) of 59%. The % of control ([14]; at 1 µM) was 97% and the % of control ([14]; at 5 µM) was 85%.
